In patent publication US8889156B2, “Calcium-binding agents induce hair growth and/or nail growth” (priority 2009, dated 2014):
Like-named read-outs stand apart in the source and are kept apart here. Square brackets hold non-standard residues; d marks the D form. Ends that are not written are not given here. pS = N[C@@H](COP(=O)(O)O)C(=O)O

Key:
[1] = HA binding assay (pulldown of fluorescein-labeled peptides, Langmuir isotherm fit); details: for Nmax (maximum monolayer surface concentration) / KA (binding affinity for HA): fit of Langmuir equation; for KA (binding affinity for HA): fluorescein-labeled peptide 0-100 μM, 0.3 mg HA nanocrystals
Description: Fluorescein-labeled DSS-containing peptides of various lengths were subjected to pulldown assays as follows: Samples containing varying concentrations of fluorescein-labeled peptide (0-100 μM) and a fixed amount (0.3 mg) of HA nanocrystals with a specific surface area of 100 m^2/g (Berkeley Advanced Biomaterials, Berkeley, Calif.) were prepared. Measurements were taken of the absorbance of the labeled peptide at 488 nm (the peak absorbance of the fluorescein label) before and after exposure to the HA. The amount of peptide bound was calculated by comparing the ratio of the final (Af) and initial (Ai) absorbances to the initial concentration (C0) [Cbound=(Af/Ai)C0]. Plots were generated of the amount of peptide bound per meter squared of HA surface area vs. concentration of unbound peptide at equilibrium. The resulting isotherms were fit to the Langmuir isotherm, x/m=(KANmaxCeq)/(1+KACeq), where x/m represents the molar amount of peptide bound per unit of HA surface area, KA is the affinity constant of the peptide for the HA surface (L/Mol), Nmax is the maximum surface concentration (mol/m^2), and Ceq is the molar concentration of unbound peptide at equilibrium (Calis et al. (1995) Pharm Res., 12: 1072-1076).
In order to quantitatively assess the strength of the DSS-HA interaction as well as to determine the roles of peptide length and sequence on binding, fluorescein-labeled, DSS-containing peptides of various lengths were subjected to pulldown assays as described in “Materials and Methods.”
The experimental data were fit to the Langmuir isotherm, which describes the binding of molecules to surfaces with the conditions that (1) all binding sites have the same affinity for the peptide and (2) the peptide will form a monolayer on the surface but cannot accumulate to higher levels (Atkins (1994) Physical chemistry. Freeman, New York). The excellent fit of the Langmuir isotherm to the experimental data validates these conditions, and the constants obtained from this analysis were used for comparisons between peptides. As shown in FIG. 7A and summarized in Table 6, both the binding affinity (KA) and the monolayer concentration (NMax) of the various peptides increased with the number of DSS repeats per peptide. Additionally, several variant peptides were tested (FIGS. 7B, 7C, Table 6): a peptide containing a longer side chain at the first position (4ESS (SEQ ID NO:34)), peptides containing a more sterically hindered hydroxyl group at the second and third positions (4DTT (SEQ ID NO:36), 4NTT (SEQ ID NO:38), 4ETT (SEQ ID NO:37)), peptides lacking a charged group at the first position (4NSS (SEQ ID NO:35), 8ASS (SEQ ID NO:26)), and peptides lacking hydroxyl groups at the second and third positions (DAA-8 (SEQ ID NO:40), 8NAA (SEQ ID NO:41)).

[2] = Tissue specific binding of labeled peptides to sections of human teeth (CLSM); details: 5(6)-carboxyfluorescein-labeled peptide, ten minutes; for level of binding (staining) to tooth surfaces: identical settings
From the text: In order to investigate the tissue specificity of DSS peptide binding to tooth tissue, sections of human teeth were exposed to DSS peptides and variants, then imaged by CLSM. The peptides utilized for these experiments were 8DSS (SEQ ID NO:33), 8ASS (SEQ ID NO:26), 8DAA (SEQ ID NO:40), 8NAA (SEQ ID NO:41), 4DSS (SEQ ID NO:31), 4ESS (SEQ ID NO:34), 4NSS (SEQ ID NO:35), 4DTT (SEQ ID NO:36), 4ETT (SEQ ID NO:37), 4NTT (SEQ ID NO:38), and 6DSS (SEQ ID NO:32). Sagittal sections of human teeth extracted during normal clinical practice were polished and then incubated for ten minutes in a solution of the appropriate 5(6) carboxyfluorescein-labeled peptide (12.5pM) containing 10 mM NaCl and 50 mM HEPES, pH 7.0. Control samples were prepared without peptide. Samples were washed extensively after treatment and imaged by CLSM using blue laser illumination (A=488 nm) and a FITC emission filter, with identical camera and microscope settings for each sample. For each section, multiple scans were collected and assembled in an automated mode to generate panels of images representing an area of 13×13 mm, sufficient in most cases to encompass the whole section. […] Significant binding was also seen to the edges of the pulp cavity.

[3] = Binding of labeled peptides to carious lesions in teeth (CLSM); design: species or system human; details: labeled peptide, settings optimized per sample
From the text: Sections of human teeth containing obvious carious lesions, which consist of demineralized enamel, were polished and exposed to 5(6)-carboxyfluorescein-labeled DSS peptides and variants. The sections were washed extensively and imaged by CLSM using blue laser illumination (A=488 nm) and a FITC emission filter, with microscope and camera settings adjusted for each sample to optimize the signal detected from each peptide. The images were examined to identify the relative levels of peptide binding in healthy versus carious tissue. […] Given their ability to remineralize at sites of enamel degradation, they can also be used to initiate remineralization at sites of enamel degradation such as caries or injury sites without causing inappropriate nucleation on healthy tissue surfaces.

[4] = system: Streptococcus mutans strain UA159; assay type: cell-based
Description: The sequences of these fusion proteins are […] NO:24), and […] NO:25) (see SEQ ID NOs:27-29, respectively in WO 2007/038683). The antimicrobial activity of these peptides against anaerobic planktonic bacteria was determined by a modification of a previously described assay. Briefly, Streptococcus mutans strain UA159 cells were diluted to -1×10^5 cfu/mL in Todd-Hewitt (TH) broth medium and mixed with either suspended hydroxyapatite nanocrystals (Berkeley Advanced Biomaterials, Inc., 0.03% w/v) or, for control samples, an equivalent volume of deionized water. Aliquots were transferred into 96-well plates (Fisher). Serial dilutions of the peptides were then made and added to the bacteria. […] Nonetheless, some antimicrobial activity is retained by this peptide.

Substance: DTT DTT DTT DTT (DTTDTTDTTDTT; synthetic calcium-binding peptide 4DTT)
- Nmax (maximum monolayer surface concentration) [1]: 1.3 × 10^−8 ± 1 × 10^−9 mol/m^2
- KA (binding affinity for HA) [1]: 161,000 ± 79,000 M^−1
- effect of sequence variation on binding affinity (KA) relative to DSS peptide of same size ([1]; in words): little observable effect
- tissue pattern of binding in the tooth section [2]: binding patterns similar to those of 4DSS
- level of binding (staining) to tooth surfaces [2]: sharply reduced levels

Substance: 4DS(P)S: phosphorylated DSS repeat peptide of the same size as 4DSS, SEQ ID NO:4 (D[pS]SD[pS]SD[pS]SD[pS]S)
- Nmax (maximum monolayer surface concentration) [1]: 1.2 × 10^−7 ± 5 × 10^−9 mol/m^2
- KA (binding affinity for HA) [1]: 83,000 ± 9,000 M^−1
- effect of sequence variation on binding affinity (KA) relative to DSS peptide of same size ([1]; in words): did not lead to a significant change in binding affinity
- surface binding density relative to unphosphorylated peptide ([1]; in words): large increase in the surface binding density

Substance: ESS ESS ESS ESS (ESSESSESSESS; synthetic calcium-binding peptide 4ESS)
- Nmax (maximum monolayer surface concentration) [1]: 4.6 × 10^−8 ± 4 × 10^−9 mol/m^2
- KA (binding affinity for HA) [1]: 81,000 ± 18,000 M^−1
- level of binding (staining) to tooth surfaces [2]: lower levels of binding
- specificity of binding to carious lesions versus healthy enamel [3]: highly specific binding to carious lesions
- strength of staining of carious lesions [3]: exceptionally strong staining of carious lesions

Substance: NTT NTT NTT NTT (NTTNTTNTTNTT; synthetic calcium-binding peptide 4NTT)
- Nmax (maximum monolayer surface concentration) [1]: 5.8 × 10^−8 ± 2 × 10^−8 mol/m^2
- KA (binding affinity for HA) [1]: 17,000 ± 7,000 M^−1
- HA binding activity ([1]; in words): near-total loss of binding activity
- effect of sequence variation on binding affinity (KA) relative to DSS peptide of same size ([1]; in words): significant loss of binding affinity
- tissue pattern of binding in the tooth section [2]: strong binding to a fragment of periodontal bone
- level of binding (staining) to tooth surfaces [2]: very low levels of binding to the healthy tooth tissue

Substance: DSSDSSDSSDSSGGGRWRWRWF [4DSS-2c4, DSS DSS DSS DSS GGG RWRWRWF]
- MIC ([4]; planktonic S. mutans, with 0.03% (w/v) hydroxyapatite, approximately 24 hours): unaffected
- MIC ([4]; strain UA159, 24 h): 52.5

Substance: ETT ETT ETT ETT (ETTETTETTETT; synthetic calcium-binding peptide 4ETT)
- Nmax (maximum monolayer surface concentration) [1]: 8.8 × 10^−8 ± 9 × 10^−9 mol/m^2
- KA (binding affinity for HA) [1]: 79,000 ± 25,000 M^−1
- effect of sequence variation on binding affinity (KA) relative to DSS peptide of same size ([1]; in words): little observable effect
- tissue pattern of binding in the tooth section [2]: binding patterns similar to those of 4DSS
- level of binding (staining) to tooth surfaces [2]: sharply reduced levels
- specificity of binding to carious lesions versus healthy enamel [3]: highly specific binding to carious lesions

Substance: NSS NSS NSS NSS (NSSNSSNSSNSS; synthetic calcium-binding peptide 4NSS)
- Nmax (maximum monolayer surface concentration) [1]: 3.0 × 10^−8 ± 1 × 10^−9 mol/m^2
- KA (binding affinity for HA) [1]: 16,000 ± 4,000 M^−1
- effect of sequence variation on binding affinity (KA) relative to DSS peptide of same size ([1]; in words): significant loss of binding affinity
- level of binding (staining) to tooth surfaces [2]: lower levels of binding
- specificity of binding to carious lesions versus healthy enamel [3]: highly specific binding to carious lesions

Substance: NAANAANAANAANAANAANAANAA [8NAA]
- HA binding activity ([1]; in words): near-total loss of binding activity
- tissue pattern of binding in the tooth section [2]: did bind somewhat to a carious lesion
- level of binding (staining) to tooth surfaces [2]: very little binding to any healthy tissue
- specificity of binding to carious lesions versus healthy enamel [3]: highly specific binding to carious lesions

Substance: LKRFLKWFKRF [b-34, LKRF LKWF KRF, reference compound]
- MIC ([4]; strain UA159, 24 h): 5.6

Substance: 4NAA: printed once with SEQ ID NO:44; not among the synthesized peptides, probably a misprint (NAANAANAANAA; synthetic calcium-binding peptide 4NAA)
- strength of staining of carious lesions [3]: exceptionally strong staining of carious lesions

Substance: DSS DSS DSS DSS (DSSDSSDSSDSS; synthetic calcium-binding peptide 4DSS)
- Nmax (maximum monolayer surface concentration) [1]: 5.8 × 10^−8 ± 6 × 10^−9 mol/m^2
- KA (binding affinity for HA) [1]: 94,000 ± 26,000 M^−1
- tissue pattern of binding in the tooth section [2]: bound primarily to the mantle dentin
- specificity of binding to carious lesions versus healthy enamel [3]: highly specific binding to carious lesions
- strength of staining of carious lesions [3]: exceptionally strong staining of carious lesions

Substance: 5DSS: peptide of five Asp-Ser-Ser repeats, SEQ ID NO:22 (DSSDSSDSSDSSDSS; synthetic calcium-binding peptide 5DSS, (DSS)-5)
- Nmax (maximum monolayer surface concentration) [1]: 9.2 × 10^−8 ± 2 × 10^−9 mol/m^2
- KA (binding affinity for HA) [1]: 148,000 ± 14,000 M^−1

Substance: FHFHLHF [PL-135, FHFHLHF, reference compound]
- MIC ([4]; strain UA159, 24 h): 21

Substance: DSS DSS (DSSDSS; synthetic calcium-binding peptide 2DSS)
- Nmax (maximum monolayer surface concentration) [1]: 2 × 10^−8 ± 5 × 10^−9 mol/m^2
- KA (binding affinity for HA) [1]: 57,000 ± 24,000 M^−1

Substance: RWRWRWF [2c-4, RWRWRWF, reference compound]
- MIC ([4]; strain UA159, 24 h): 2

Substance: ASS ASS ASS ASS ASS ASS ASS ASS (ASSASSASSASSASSASSASSASS; synthetic calcium-binding peptide 8ASS)
- effect of sequence variation on binding affinity (KA) relative to DSS peptide of same size ([1]; in words): significant loss of binding affinity
- level of binding (staining) to tooth surfaces [2]: lower levels of binding
- specificity of binding to carious lesions versus healthy enamel [3]: highly specific binding to carious lesions
- strength of staining of carious lesions [3]: exceptionally strong staining of carious lesions

Substance: DAA DAA DAA DAA DAA DAA DAA DAA (DAADAADAADAADAADAADAADAA; synthetic calcium-binding peptide 8DAA)
- Nmax (maximum monolayer surface concentration) [1]: 6.0 × 10^−8 ± 6 × 10^−9 mol/m^2
- KA (binding affinity for HA) [1]: 310,000 ± 74,000 M^−1
- effect of sequence variation on binding affinity (KA) relative to DSS peptide of same size ([1]; in words, listed as DAA8): little observable effect
- effect of sequence variation on binding affinity (KA) relative to DSS peptide of same size ([1]; in words, listed as DAA-8): within experimental error of the KA for 8DSS
- tissue pattern of binding in the tooth section [2]: primary binding to the root tip dentin and cortical enamel
- specificity of binding to carious lesions versus healthy enamel [3]: highly specific binding to carious lesions
- strength of staining of carious lesions [3]: exceptionally strong staining of carious lesions
